Experimental data from patent US4027039A (priority 1975, dated 1977).
“And” between values parts separate entries of the source, which are not always exact repeats. Equal entries are not always repeated. Where two headings read alike, the source gives them in different places.

Experiments:
[1] = system: Influenza B Massachusetts virus; assay: Influenza B Mass. in mice, oral; late read day 5 (Table 39), 7 (Table 40), 11 (Tables 61, 65); control fraction 16/20 (Table 61), else 100%; type: in vivo, mouse
Experimental: A portion of a commercially available sample of amantadine was recrystallized from isopropanol. The activity of the material against Influenza B Mass. was tested for the sample as obtained, the recrystallized portion, and the mother liquor obtained from recrystallizing the portion.

viral infections = assay: Antiviral screening in animals, general statements; conditions: mouse, in vivo
Influenza PR 8 virus [2] = assay: Influenza PR 8 in mice, oral; schedule by table; late read day 6 (Table 37), 7 (33, 36), 8 (32, 35, 47), 10 (38); control fraction 18/20 (Table 32), 19/20 (Table 35), else 100%; type: in vivo, mouse
[3] = system: Influenza, Ann Arbor virus; assay: Influenza Ann Arbor in mice, oral; schedule by table; late read day 5 (Tables 15, 25, 29, 30), 6 (18, 20, 22, 23, 26, 27, 28, 54), 7 (14, 19, 21, 24, 53, 56), 8 (16, 17, 51), 9 (11, 55); type: in vivo, mouse
[4] = system: Influenza B Massachusetts virus; conditions: larger doses and different dose schedules, literature; cited from earlier work
Vaccinia virus [5] = system: Vaccinia virus; set-up: species or system fertile eggs; conditions: various concentrations
Herpes virus [6] = assay: Herpes virus in chicken eggs, single dose 24 hours pre-infection; type: in vivo, chick embryo
Influenza PR 8 virus [7] = assay: Influenza PR 8 in mice, intraperitoneal (Table 47); type: in vivo, mouse
Herpes virus [8] = system: Herpes virus
Neurovaccinia virus = assay: Neurovaccinia in mice; conditions: single dose level, three instances
Vaccinia IHD virus = type: in vivo, mouse
Vaccinia virus [9] = type: in vivo, rabbit
Mengo virus = Mengo virus in mice, oral; type: in vivo, mouse
Text: The results are illustrated in Table 43.

Influenza PR 8 virus [10] = assay: Influenza PR 8 in mice, subcutaneous; late read day 6 (Table 37), 8 (Table 47); type: in vivo, mouse
[11] = system: infectious canine hepatitis; conditions: 50 mg/kg; cited from earlier work

Compound: NC12CC3CC(CC(C3)C1)C2 [Commercial amantadine, amantadine, reference compound]
- No. animals surviving after 11 days ([1]; total dose 60 ng): 3
- No. animals surviving after 11 days ([1]; total dose 600 ng): 3
- Survivors ([1]; total dose 600 ng): 3
- No. animals surviving after 11 days ([1]; total dose 6 μg): 7
- Survivors ([1]; total dose 6 μg): 5
- No. animals surviving after 11 days ([1]; total dose 60 μg): 3
- Survivors ([1]; total dose 60 μg): 2
- No. animals surviving after 11 days ([1]; total dose 600 μg): 5
- Survivors ([1]; total dose 600 μg): 5
- No. animals surviving after 11 days ([1]; total dose 6 mg): 4
- Survivors ([1]; total dose 6 mg): 2
- activity in words (viral infections): inactive against all of the other viruses in the test system
- instances of increased geometric mean survival time (Influenza PR 8 virus [2]; of 41 tests): 11
- statistically significant number of survivors in one single instance (Influenza PR 8 virus [2]; of 41 tests): 3
- occasions with survivors ([3]; of 18 tests): 5
- effect against Influenza B Massachusetts [4]: ineffective

Compound: NNC(N)=S [Thiosemicarbazide, thiosemicarbazide]
- activity in words (viral infections): active
- effect on pox formation on the membrane (Vaccinia virus [5]): No effect
- Deaths on day 1 (Herpes virus [6]; 2 μg): 3
- Deaths on day 3 (Herpes virus [6]; 2 μg): 5
- Deaths on day 4 (Herpes virus [6]; 2 μg): 3
- No. dying 5-22 day (Herpes virus [6]; 2 μg): 0
- No. living longer than controls (Herpes virus [6]; 2 μg): 0
- Total deaths, 4th day (Herpes virus [6]; 2 μg): 12
- Deaths on day 2 (Herpes virus [6]; 20 μg): 4
- Deaths on day 3 (Herpes virus [6]; 20 μg): 6
- No. dying 5-22 day (Herpes virus [6]; 20 μg): 0
- No. living longer than controls (Herpes virus [6]; 20 μg): 0
- Total deaths, 4th day (Herpes virus [6]; 20 μg): 12
- Deaths on day 1 (Herpes virus [6]; .00005 μg): 2
- Deaths on day 2 (Herpes virus [6]; .00005 μg): 5
- Deaths on day 3 (Herpes virus [6]; .00005 μg): 2
- No. dying 5-22 day (Herpes virus [6]; .00005 μg): 0
- Total deaths, 4th day (Herpes virus [6]; .00005 μg): 10
- Deaths on day 1 (Herpes virus [6]; .0005 μg): 2
- Deaths on day 2 (Herpes virus [6]; .0005 μg): 3
- Deaths on day 3 (Herpes virus [6]; .0005 μg): 2
- Deaths on day 4 (Herpes virus [6]; .0005 μg): 3
- No. dying 5-22 day (Herpes virus [6]; .0005 μg): 0
- Total deaths, 4th day (Herpes virus [6]; .0005 μg): 10
- Deaths on day 1 (Herpes virus [6]; .005 μg): 4
- Deaths on day 2 (Herpes virus [6]; .005 μg): 3
- Deaths on day 3 (Herpes virus [6]; .005 μg): 3
- No. living longer than controls (Herpes virus [6]; .005 μg): 2
- Total deaths, 4th day (Herpes virus [6]; .005 μg): 10
- Deaths on day 2 (Herpes virus [6]; .05 μg): 3
- Deaths on day 3 (Herpes virus [6]; .05 μg): 5
- No. dying 5-22 day (Herpes virus [6]; .05 μg): 0
- Total deaths, 4th day (Herpes virus [6]; .05 μg): 9
- Deaths on day 1 (Herpes virus [6]; .5 μg): 3
- Deaths on day 2 (Herpes virus [6]; .5 μg): 4
- Deaths on day 3 (Herpes virus [6]; .5 μg): 2
- Deaths on day 4 (Herpes virus [6]; .5 μg): 2
- No. dying 5-22 day (Herpes virus [6]; .5 μg): 0
- Total deaths, 4th day (Herpes virus [6]; .5 μg): 11
- Total no. living longer than controls (Herpes virus [6]; all doses): 7
- Survivors (Influenza PR 8 virus [7]; total dose 5 μg): 0
- Survivors (Influenza PR 8 virus [7]; total dose .005 μg): 0
- Survivors (Influenza PR 8 virus [7]; total dose .05 μg): 0
- Survivors (Influenza PR 8 virus [7]; total dose .5 μg): 0
- activity in words (Herpes virus [8]; mouse, in vivo): quite significant protection
- No. animals surviving when 100% (or given fraction) of controls are dead (Herpes virus [8]; total dose .000005 μg): 0
- Survivors (Herpes virus [8]; total dose .000005 μg): 0
- No. animals surviving after 6-9 days (Herpes virus [8]; total dose .00005 μg): 6
- No. animals surviving when 100% (or given fraction) of controls are dead (Herpes virus [8]; total dose .00005 μg): 3
- Survivors (Herpes virus [8]; total dose .00005 μg): 3
- No. animals surviving after 6-9 days (Herpes virus [8]; total dose .005 μg): 5 and 3 and 6
- No. animals surviving after 6-9 days (Herpes virus [8]; total dose .5 μg): 3
- No. animals surviving after 6-10 days (Influenza PR 8 virus [2]; total dose 5 μg): 3
- No. animals surviving after 6-10 days (Influenza PR 8 virus [2]; total dose .005 μg): 3
- No. animals surviving when 100% (or given fraction) of controls are dead (Influenza PR 8 virus [2]; total dose .005 μg): 3
- Survivors (Influenza PR 8 virus [2]; total dose .005 μg): 3
- No. animals surviving when 100% (or given fraction) of controls are dead (Influenza PR 8 virus [2]; total dose .5 μg): 0
- Survivors (Influenza PR 8 virus [2]; total dose .5 μg): 0
- No. animals surviving after 5-9 days ([3]; total dose .05 μg): 5
- No. animals surviving after 5-9 days ([3]; total dose .5 μg): 3
- Survivors ([3]; total dose .5 μg): 0
- No. animals surviving after 5-9 days ([3]; total dose .5 μg, listed as thiosemicarbazide): 7 and 6
- surviving animals (Neurovaccinia virus): one
- Statistical Significance of Tail Lesions (Vaccinia IHD virus; 10 ng, day 12): < .05
- Statistical Significance of Tail Lesions (Vaccinia IHD virus; 10 ng, day 14): < .05
- Statistical Significance of Tail Lesions (Vaccinia IHD virus; 10 ng, day 17): < .05
- Statistical Significance of Tail Lesions (Vaccinia IHD virus; 10 ng, day 21): < .05
- Statistical Significance of Tail Lesions (Vaccinia IHD virus; 1 μg, day 5): < .01
- Statistical Significance of Tail Lesions (Vaccinia IHD virus; 1 μg, day 6): < .01
- Statistical Significance of Tail Lesions (Vaccinia IHD virus; 1 μg, day 7): < .01
- Statistical Significance of Tail Lesions (Vaccinia IHD virus; 1 μg, day 8): < .01
- Statistical Significance of Tail Lesions (Vaccinia IHD virus; 1 μg, day 10): < .01
- Statistical Significance of Tail Lesions (Vaccinia IHD virus; 1 μg, day 11): < .01
- Statistical Significance of Tail Lesions (Vaccinia IHD virus; 1 μg, day 12): < .01
- Statistical Significance of Tail Lesions (Vaccinia IHD virus; 1 μg, day 14): < .01
- Statistical Significance of Tail Lesions (Vaccinia IHD virus; 1 μg, day 17): < .01
- Statistical Significance of Tail Lesions (Vaccinia IHD virus; 1 μg, day 21): < .01
- Statistical Significance of Tail Lesions (Vaccinia IHD virus; 10 [μg], day 6): < .01
- Statistical Significance of Tail Lesions (Vaccinia IHD virus; 10 [μg], day 10): < .05
- Statistical Significance of Tail Lesions (Vaccinia IHD virus; 10 [μg], day 11): < .01
- Statistical Significance of Tail Lesions (Vaccinia IHD virus; 10 [μg], day 12): < .01
- Statistical Significance of Tail Lesions (Vaccinia IHD virus; 10 [μg], day 14): < .01
- Statistical Significance of Tail Lesions (Vaccinia IHD virus; 10 [μg], day 17): < .01
- Statistical Significance of Tail Lesions (Vaccinia IHD virus; 10 [μg], day 21): < .01
- Statistical Significance of Tail Lesions (Vaccinia IHD virus; 100 [ng], day 8): < .05
- Statistical Significance of Tail Lesions (Vaccinia IHD virus; 100 [ng], day 10): < .01
- Statistical Significance of Tail Lesions (Vaccinia IHD virus; 100 [ng], day 11): < .01
- Statistical Significance of Tail Lesions (Vaccinia IHD virus; 100 [ng], day 12): < .01
- Statistical Significance of Tail Lesions (Vaccinia IHD virus; 100 [ng], day 14): < .01
- Statistical Significance of Tail Lesions (Vaccinia IHD virus; 100 [ng], day 17): < .01
- Statistical Significance of Tail Lesions (Vaccinia IHD virus; 100 [ng], day 21): < .01
- approximate percentage confluency of the pox (Vaccinia virus [9]; 0.0000025 μg/kg, Test 2): 85%
- approximate percentage confluency of the pox (Vaccinia virus [9]; 0.000025 μg/kg, Test 2): 25%
- approximate percentage confluency of the pox (Vaccinia virus [9]; 0.00025 μg/kg, Test 2): 40%
- approximate percentage confluency of the pox (Vaccinia virus [9]; 0.0025 μg/kg, Duplicate Experiments): 75% and 60%
- approximate percentage confluency of the pox (Vaccinia virus [9]; 0.0025 μg/kg, Test 1): 2%
- approximate percentage confluency of the pox (Vaccinia virus [9]; 0.0025 μg/kg, Test 2): 80%
- approximate percentage confluency of the pox (Vaccinia virus [9]; 0.0025 μg/kg, Test 3): 85%
- approximate percentage confluency of the pox (Vaccinia virus [9]; 0.025 μg/kg, Duplicate Experiments): 75% and 80%
- approximate percentage confluency of the pox (Vaccinia virus [9]; 0.025 μg/kg, Test 1): 5%
- approximate percentage confluency of the pox (Vaccinia virus [9]; 0.025 μg/kg, Test 2): 5%
- approximate percentage confluency of the pox (Vaccinia virus [9]; 0.025 μg/kg, Test 3): 75% and 90%
- approximate percentage confluency of the pox (Vaccinia virus [9]; 0.25 μg/kg, Test 1): 10%
- approximate percentage confluency of the pox (Vaccinia virus [9]; 0.25 μg/kg, Test 2): 10%
- approximate percentage confluency of the pox (Vaccinia virus [9]; 0.25 μg/kg, Test 3): 30% and 40%
- approximate percentage confluency of the pox (Vaccinia virus [9]; 2.5 μg/kg, Duplicate Experiments): 30% and 20%
- approximate percentage confluency of the pox (Vaccinia virus [9]; 2.5 μg/kg, Test 1): 50%
- approximate percentage confluency of the pox (Vaccinia virus [9]; 2.5 μg/kg, Test 2): 80%
- approximate percentage confluency of the pox (Vaccinia virus [9]; 2.5 μg/kg, Test 3): 30% and 20%
- approximate percentage confluency of the pox (Vaccinia virus [9]; 25 μg/kg, Test 1): 80%
- approximate percentage confluency of the pox (Vaccinia virus [9]; 25 μg/kg, Test 2): 10%
- approximate percentage confluency of the pox (Vaccinia virus [9]; 250 μg/kg, Test 1): 80%
- significance (T test) (Vaccinia virus [9]; dose 0.25 μg/kg): < .01
- significance (T test) (Vaccinia virus [9]; dose 2.5 μg/kg): < .01
- effect on pox formation (Vaccinia virus [9]; rabbit, in vivo): highly significant and reproducible protective effects
- Survivors (Mengo virus; total dose .0000005 μg): 0
- No. animals surviving after 6 days (Mengo virus; total dose .000005 μg): 2
- No. animals surviving after 6 days (Mengo virus; total dose .00005 μg): 5
- Survivors (Mengo virus; total dose .0005 μg): 0
- Survivors (Mengo virus; total dose .005 μg): 0
- No. animals surviving after 6-8 days (Influenza PR 8 virus [10]; total dose 5 μg): 3
- Survivors (Influenza PR 8 virus [10]; total dose 5 μg): 3
- Survivors (Influenza PR 8 virus [10]; total dose .0005 μg): 0
- Survivors (Influenza PR 8 virus [10]; total dose .005 μg): 0

Compound: O=C(CCNNC(=O)c1ccncc1)NCc1ccccc1 [Nialamide, nialamide, reference compound]
- treated animals survived [11]: 15 of 16
- Survivors ([3]; total dose 400 pg): 1
- Survivors ([3]; total dose 4 ng): 1
- Survivors ([3]; total dose 40 ng): 0
- Survivors ([3]; total dose 400 ng): 0
- Survivors ([3]; total dose 4 μg): 0
- Survivors ([3]; total dose 400 μg): 2
- Survivors ([3]; total dose 4 mg): 1
